Assay results from the supplement of paper PMC11208160.

Experiment: recombinant barcode read abundance after kanamycin selection (control-corrected) (log10(CPM+1)); higher = more efficient recombination; sequences stand for … in AGTGCAGAGAAAATCGGCCAGTTTTCTCTGCCTGCAGTCCGCATGCCGT…AGATTTATGCAGCGGACTGCCTTTCTCCCAAAGTGATAAACCGGACAGTATCATGGACCGGTTTTCCCGGTAATCCGTATTTGCAAGGTTGGTTTCACT; site = the 11-nt target
Summary of the method: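 In E. coli, a pooled library matched targets to IS621 bridge RNA target-binding loops and was introduced alongside a donor plasmid. Cells went onto chloramphenicol/ampicillin/kanamycin with 0.1 mM IPTG or onto chloramphenicol/ampicillin LB agar as control, in duplicate. Recombination efficiency, from recombinant-junction barcodes as counts per million, is averaged and control-corrected. It is reported as log10(CPM+1).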
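Note: IS621 recombinase and bridge RNA in Escherichia coli cells.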

“GCTATGTCTTGGGTTCTAACCTGTTGCCT (site GGTATGTCTAA)” and “GCTCAGTCTTGGGTTCTAACCTGTTGCCT (site GCTCAGACTAG)” are within 0.2 log units of each other in “recombinant barcode read abundance (log10)” value: 0.0851 for the first, 0.00917 for the second.

Compared with “GCTCAGTCTTGGGTTCTAACCTGTTGCCT (site GCTCAGCCTAG)”, “GCTCAGTCTTGGGTTCTAACCTGTTGCCT (site GCTCAGGCTAG)” is lower in “recombinant barcode read abundance (log10)” value: 0.645 for the first, 0.218 for the second.

“GCTCAGTCTTGGGTTCTAACCTGTTGCCT (site GCTCAGTCTAG)” and “GCTCATGCTTGGGTTCTAACCTGTTGCCT (site GCTCATGCTAG)” are within 0.2 log units of each other in “recombinant barcode read abundance (log10)” value: 1.78 for the first, 1.92 for the second.

“GCTCATGCTTGGGTTCTAACCTGTTGCCT (site GCTCATTCTAG)” and “GCTCATTCTTGGGTTCTAACCTGTTGCCT (site GCTCATGCTAG)” are within 0.2 log units of each other in “recombinant barcode read abundance (log10)” value: 0.132 for the first, 0 for the second.

Compared with “GCTCATTCTTGGGTTCTAACCTGTTGCCT (site GCTCATTCTAG)”, “GCTCCATCTTGGGTTCTAACCTGTTGCCT (site GATCCATCTAG)” is lower in “recombinant barcode read abundance (log10)” value: 0.557 for the first, 0.0768 for the second.

Going from “GCTCCATCTTGGGTTCTAACCTGTTGCCT (site GCTCCATCTAG)” to “GCTCCATCTTGGGTTCTAACCTGTTGCCT (site GGTCCATCTAG)”, the “recombinant barcode read abundance (log10)” value falls from 0.941 to 0.122.

Going from “GCTCCATCTTGGGTTCTAACCTGTTGCCT (site GTTCCATCTAG)” to “GCTCCTCCTTGGGTTCTAACCTGTTGCAT (site ATAGAGTCTCG)”, the “recombinant barcode read abundance (log10)” value falls from 0.291 to 0.0486.

Going from “GCTCCTCCTTGGGTTCTAACCTGTTGCAT (site GCTCCTCCTAT)” to “GCTCGAACTTGGGTTCTAACCTGTTGCCT (site GCACGAACTAG)”, the “recombinant barcode read abundance (log10)” value falls from 1.15 to 0.46.

“GCTCGAACTTGGGTTCTAACCTGTTGCCT (site GCCCGAACTAG)” and “GCTCGAACTTGGGTTCTAACCTGTTGCCT (site GCGCGAACTAG)” are within 0.2 log units of each other in “recombinant barcode read abundance (log10)” value: 0.138 for the first, 0.00752 for the second.

First: GCTCGAACTTGGGTTCTAACCTGTTGCCT (site GCTCGAACTAG)
Second: GCTCGTGCTTGGGTTCTAACCTGTTGCCT (site GCACGTGCTAG)
The “recombinant barcode read abundance (log10)” value of the first is lower: 0.38 for the first, 0.69 for the second.

“GCTCGTGCTTGGGTTCTAACCTGTTGCCT (site GCCCGTGCTAG)” and “GCTCGTGCTTGGGTTCTAACCTGTTGCCT (site GCGCGTGCTAG)” are within 0.2 log units of each other in “recombinant barcode read abundance (log10)” value: 0.278 for the first, 0.238 for the second.

Going from “GCTCGTGCTTGGGTTCTAACCTGTTGCCT (site GCTCGTGCTAG)” to “GCTGAGGCTTGGGTTCTAACCTGTTGCCA (site CTCTGCTCTGA)”, the “recombinant barcode read abundance (log10)” value falls from 1.1 to 0.165.

First: GCTGAGGCTTGGGTTCTAACCTGTTGCCA (site GCTGAGGCTTG)
Second: GCTGAGTCTTGGGTTCTAACCTGTTGCTA (site AGGCCCACTAT)
The “recombinant barcode read abundance (log10)” value of the first is higher: 0.636 for the first, 0.0625 for the second.

Compared with “GCTGAGTCTTGGGTTCTAACCTGTTGCTA (site GCTGAGTCTTA)”, “GCTGCTCCTTGGGTTCTAACCTGTTGCGT (site GCGGGTCCTAC)” is lower in “recombinant barcode read abundance (log10)” value: 2.08 for the first, 0.0749 for the second.

First: GCTGCTCCTTGGGTTCTAACCTGTTGCGT (site GCTGCTCCTAC)
Second: GCTGGGCCTTGGGTTCTAACCTGTTGCGA (site GATGGGCCTAC)
The “recombinant barcode read abundance (log10)” value of the first is higher: 1.82 for the first, 0.0848 for the second.

First: GCTGGGCCTTGGGTTCTAACCTGTTGCGA (site GCTGGGCCTTC)
Second: GCTGTATCTTGGGTTCTAACCTGTTGCCT (site ACTGTATCTAG)
The “recombinant barcode read abundance (log10)” value of the first is higher: 2.17 for the first, 0.288 for the second.

First: GCTGTATCTTGGGTTCTAACCTGTTGCCT (site CCTGTATCTAG)
Second: GCTGTATCTTGGGTTCTAACCTGTTGCCT (site GCTGTATCTAG)
The “recombinant barcode read abundance (log10)” value of the first is lower: 0.163 for the first, 0.612 for the second.

First: GCTGTATCTTGGGTTCTAACCTGTTGCCT (site TCTGTATCTAG)
Second: GCTTCTTCTTGGGTTCTAACCTGTTGCCT (site GATTCTTCTAG)
The “recombinant barcode read abundance (log10)” value of the first is lower: 0.0648 for the first, 0.398 for the second.

“GCTTCTTCTTGGGTTCTAACCTGTTGCCT (site GCTTCTTCTAG)” and “GCTTCTTCTTGGGTTCTAACCTGTTGCCT (site GGTTCTTCTAG)” are within 0.2 log units of each other in “recombinant barcode read abundance (log10)” value: 0.0876 for the first, 0.0632 for the second.

“GCTTCTTCTTGGGTTCTAACCTGTTGCCT (site GTTTCTTCTAG)” and “GCTTGAGCTTGGGTTCTAACCTGTTGCCG (site CCTTGAGCTCA)” are within 0.2 log units of each other in “recombinant barcode read abundance (log10)” value: 0.0974 for the first, 0.0954 for the second.

“GCTTGAGCTTGGGTTCTAACCTGTTGCCG (site GCTTGAGCTCG)” and “GCTTGAGCTTGGGTTCTAACCTGTTGCCT (site GCATGAGCTAG)” are within 0.2 log units of each other in “recombinant barcode read abundance (log10)” value: 0.344 for the first, 0.421 for the second.

“GCTTGAGCTTGGGTTCTAACCTGTTGCCT (site GCCTGAGCTAG)” and “GCTTGAGCTTGGGTTCTAACCTGTTGCCT (site GCGTGAGCTAG)” are within 0.2 log units of each other in “recombinant barcode read abundance (log10)” value: 0.158 for the first, 0.139 for the second.

“GCTTGAGCTTGGGTTCTAACCTGTTGCCT (site GCTTGAGCTAG)” and “GCTTGGACTTGGGTTCTAACCTGTTGCCT (site GCTTGGACTAG)” are within 0.2 log units of each other in “recombinant barcode read abundance (log10)” value: 0.589 for the first, 0.467 for the second.

“GCTTGGACTTGGGTTCTAACCTGTTGCCT (site GCTTTGACTAG)” and “GCTTGTTCTTGGGTTCTAACCTGTTGCCT (site ACTTGTTCTAG)” are within 0.2 log units of each other in “recombinant barcode read abundance (log10)” value: 0.0492 for the first, 0.0443 for the second.

Going from “GCTTGTTCTTGGGTTCTAACCTGTTGCCT (site CCTTGTTCTAG)” to “GCTTGTTCTTGGGTTCTAACCTGTTGCCT (site GCTTGTTCTAG)”, the “recombinant barcode read abundance (log10)” value falls from 0.501 to 0.233.

“GCTTGTTCTTGGGTTCTAACCTGTTGCCT (site TCTTGTTCTAG)” and “GCTTTACCTTGGGTTCTAACCTGTTGCCT (site ACTTTACCTAG)” are within 0.2 log units of each other in “recombinant barcode read abundance (log10)” value: 0.11 for the first, 0.0836 for the second.

Going from “GCTTTACCTTGGGTTCTAACCTGTTGCCT (site CCTTTACCTAG)” to “GCTTTACCTTGGGTTCTAACCTGTTGCCT (site GCTTTACCTAG)”, the “recombinant barcode read abundance (log10)” value rises from 0.019 to 0.456.

“GCTTTACCTTGGGTTCTAACCTGTTGCCT (site TCTTTACCTAG)” and “GCTTTGCCTTGGGTTCTAACCTGTTGCCT (site ACTTTCCCTAG)” are within 0.2 log units of each other in “recombinant barcode read abundance (log10)” value: 0.0534 for the first, 0.0475 for the second.

Compared with “GCTTTGCCTTGGGTTCTAACCTGTTGCCT (site GCTTTGCCTAG)”, “GGAACGTCTTGGGTTCTAACCTGTTGCTT (site GGAACCTCTAA)” is lower in “recombinant barcode read abundance (log10)” value: 0.409 for the first, 0.0353 for the second.

Compared with “GGAACGTCTTGGGTTCTAACCTGTTGCTT (site GGAACGTCTAA)”, “GGAACTACTTGGGTTCTAACCTGTTGCAC (site GGAACTACTGT)” is lower in “recombinant barcode read abundance (log10)” value: 1.06 for the first, 0.838 for the second.

“GGAACTACTTGGGTTCTAACCTGTTGCAC (site TTGCTAGCTCC)” and “GGAAGCCCTTGGGTTCTAACCTGTTGCTA (site AACTAAGCTAG)” are within 0.2 log units of each other in “recombinant barcode read abundance (log10)” value: 0.114 for the first, 0.0242 for the second.

Going from “GGAAGCCCTTGGGTTCTAACCTGTTGCTA (site GGAAGCCCTTA)” to “GGAAGTTCTTGGGTTCTAACCTGTTGCCT (site GAAAGTTCTAG)”, the “recombinant barcode read abundance (log10)” value falls from 0.694 to 0.0496.

Compared with “GGAAGTTCTTGGGTTCTAACCTGTTGCCT (site GCAAGTTCTAG)”, “GGAAGTTCTTGGGTTCTAACCTGTTGCCT (site GGAAGTTCTAG)” is higher in “recombinant barcode read abundance (log10)” value: 0.0862 for the first, 0.732 for the second.

Going from “GGAAGTTCTTGGGTTCTAACCTGTTGCCT (site GTAAGTTCTAG)” to “GGAATACCTTGGGTTCTAACCTGTTGCCT (site GGAATACCTAG)”, the “recombinant barcode read abundance (log10)” value rises from 0.754 to 1.36.

“GGAATACCTTGGGTTCTAACCTGTTGCCT (site GGAATCCCTAG)” and “GGAATACCTTGGGTTCTAACCTGTTGCCT (site GGAATGCCTAG)” are within 0.2 log units of each other in “recombinant barcode read abundance (log10)” value: 0.157 for the first, 0.0994 for the second.

First: GGAATACCTTGGGTTCTAACCTGTTGCCT (site GGAATTCCTAG)
Second: GGAATGCCTTGGGTTCTAACCTGTTGCCT (site GGAATACCTAG)
The “recombinant barcode read abundance (log10)” value of the first is lower: 0.0368 for the first, 0.79 for the second.

Compared with “GGAATGCCTTGGGTTCTAACCTGTTGCCT (site GGAATCCCTAG)”, “GGAATGCCTTGGGTTCTAACCTGTTGCCT (site GGAATGCCTAG)” is higher in “recombinant barcode read abundance (log10)” value: 0.0574 for the first, 0.975 for the second.

Compared with “GGAATGCCTTGGGTTCTAACCTGTTGCCT (site GGAATTCCTAG)”, “GGAATGTCTTGGGTTCTAACCTGTTGCCT (site GAAATGTCTAG)” is higher in “recombinant barcode read abundance (log10)” value: 0.0966 for the first, 0.344 for the second.

With “GGAATGTCTTGGGTTCTAACCTGTTGCCT (site GCAATGTCTAG)” the “recombinant barcode read abundance (log10)” value was 0.0847.
